In US9796733B2, “Imidazo-pyrazine derivatives useful as soluble guanylate cyclase activators” (Merck Sharp & Dohme Corp., priority 2014, dated 2017):

Target: T1, sGC α1/β1 heterodimer (Homo sapiens, UniProt Q02108+Q02153)
T1 construct: expressed in transfected cells; host or cells: CHO-K1 (clone #7, CHO-K1/sGC)
T1 sequence (Q02108 1-690): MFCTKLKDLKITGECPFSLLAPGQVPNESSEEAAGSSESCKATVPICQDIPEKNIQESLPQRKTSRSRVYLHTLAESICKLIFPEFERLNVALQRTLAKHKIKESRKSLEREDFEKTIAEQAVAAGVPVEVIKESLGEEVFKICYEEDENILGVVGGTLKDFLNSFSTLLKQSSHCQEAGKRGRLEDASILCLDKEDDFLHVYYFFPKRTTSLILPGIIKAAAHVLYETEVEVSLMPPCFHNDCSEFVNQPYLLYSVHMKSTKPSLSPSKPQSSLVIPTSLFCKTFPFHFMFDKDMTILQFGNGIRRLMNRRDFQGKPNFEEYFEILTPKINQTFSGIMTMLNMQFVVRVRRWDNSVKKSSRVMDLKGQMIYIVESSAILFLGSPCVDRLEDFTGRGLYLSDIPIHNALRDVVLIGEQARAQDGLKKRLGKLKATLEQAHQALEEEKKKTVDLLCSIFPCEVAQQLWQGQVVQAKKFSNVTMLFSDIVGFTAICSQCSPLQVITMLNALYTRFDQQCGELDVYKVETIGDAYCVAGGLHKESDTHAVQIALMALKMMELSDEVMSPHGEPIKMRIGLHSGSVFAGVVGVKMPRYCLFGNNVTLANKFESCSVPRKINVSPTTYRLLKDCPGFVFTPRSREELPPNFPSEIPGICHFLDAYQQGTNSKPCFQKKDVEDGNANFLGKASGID
T1 sequence (Q02153 1-619): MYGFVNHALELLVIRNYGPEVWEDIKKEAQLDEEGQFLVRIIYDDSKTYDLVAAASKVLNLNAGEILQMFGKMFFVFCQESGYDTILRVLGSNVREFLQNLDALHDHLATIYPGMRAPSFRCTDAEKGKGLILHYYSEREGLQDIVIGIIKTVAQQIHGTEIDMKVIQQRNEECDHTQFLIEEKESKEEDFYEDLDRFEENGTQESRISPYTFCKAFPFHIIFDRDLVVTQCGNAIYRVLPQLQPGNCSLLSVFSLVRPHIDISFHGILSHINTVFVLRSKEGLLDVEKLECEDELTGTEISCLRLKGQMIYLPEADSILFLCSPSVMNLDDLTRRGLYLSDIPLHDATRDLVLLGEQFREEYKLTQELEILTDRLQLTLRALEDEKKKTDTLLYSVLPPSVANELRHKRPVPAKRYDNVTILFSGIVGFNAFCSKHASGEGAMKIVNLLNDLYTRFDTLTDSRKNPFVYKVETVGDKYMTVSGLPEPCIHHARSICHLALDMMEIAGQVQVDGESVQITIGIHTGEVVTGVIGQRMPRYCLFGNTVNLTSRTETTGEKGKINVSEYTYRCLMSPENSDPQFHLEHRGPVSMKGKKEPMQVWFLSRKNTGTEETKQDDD
Test: Cell-based sGC functional assay (CASA assay): cGMP generation in CHO-K1/sGC cells, HTRF detection
Details: for Emax: CHO-K1, percent activation relative to standard Compound A in CHO-K1/sGC cells, read-out: % Act.; for EC50: inflection point (IP) of cGMP generation in CHO-K1/sGC cells, 4P fit, activity expressed as percentage of Compound A
Outline: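 cGMP was quantified by HTRF after 1 hr, 37° C exposure of thawed CHO-K1 cells expressing sGC α1/β1 to compound, with or without 1 μM DETA-NO. IBMX (0.5 mM) blocked cGMP breakdown, and DMSO was 2.5% final. Percent of standard Compound A's maximal cGMP was fitted (4P) for inflection point.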

| SMILES | Emax | EC50 |
| --- | --- | --- |
| CC1(c2ccc(F)cc2)C(=O)Nc2nc(-c3cn4cc(C(F)(F)F)nc4c(Cc4ccc(F)c(F)c4)n3)nc(N)c21 (centres unmarked) [Example 152A, 4-amino-2-(8-(3,4-difluorobenzyl)-2-(trifluoromethyl)imidazo[1,2-a]pyrazin-6-yl)-5-(4-fluorophenyl)-5-methyl-5H-pyrrolo[2,3-d]pyrimidin-6(7H)-one] | 129% | 43 nM |
| CC1(c2ccc(F)cc2)C(=O)Nc2nc(-c3cn4cc(C(F)(F)F)nc4c(Cc4ccc(F)cc4)n3)nc(N)c21 (centres unmarked) [Example 155A, 4-amino-2-(8-(4-fluorobenzyl)-2-(trifluoromethyl)imidazo[1,2-a]pyrazin-6-yl)-5-(4-fluorophenyl)-5-methyl-5H-pyrrolo[2,3-d]pyrimidin-6(7H)-one] | 112% | 130 nM |
| CCc1cn2cc(-c3nc(N)c4c(n3)NC(=O)C4(C)c3ccccc3)nc(CCC(F)(F)C(F)(F)F)c2n1 (centres unmarked) [Example 160B, 4-amino-2-(2-ethyl-8-(3,3,4,4,4-pentafluorobutyl)imidazo [1,2-a]pyrazin-6-yl)-5-methyl-5-phenyl-5H-pyrrolo[2,3-d]pyrimidin-6(7H)-one] | 102% | 978 nM |
| Cc1cn2cc(-c3nc(N)c4c(n3)NC(=O)C4(C)c3ccc(F)cn3)nc(Cc3ccc(F)cc3)c2n1 (centres unmarked) [Example 162B, 4-amino-2-(8-(4-fluorobenzyl)-2-methylimidazo[1,2-a]pyrazin-6-yl)-5-(5-fluoropyridin-2-yl)-5-methyl-5H-pyrrolo[2,3-d]pyrimidin-6(7H)-one] | 88% | 168 nM |
| Cc1cnc2c(Cc3ccc(F)cc3)nc(-c3nc(N)c4c(n3)NC(=O)C4(C)c3ccc(F)cn3)cn12 (centres unmarked) [Example 163B, 4-amino-2-(8-(4-fluorobenzyl)-3-methylimidazo[1,2-a]pyrazin-6-yl)-5-(5-fluoropyridin-2-yl)-5-methyl-5H-pyrrolo[2,3-d]pyrimidin-6(7H)-one] | 84% | 230 nM |
| CCCCc1nc(-c2nc(N)c3c(n2)NC(=O)C3(C)c2ccc(F)cn2)cn2cc(C)nc12 (centres unmarked) [Example 164B, 4-amino-2-(8-butyl-2-methylimidazo[1,2-a]pyrazin-6-yl)-5-(5-fluoropyridin-2-yl)-5-methyl-5H-pyrrolo[2,3-d]pyrimidin-6(7H)-one] | 93% | 81 nM |
| CCCCc1nc(-c2nc(N)c3c(n2)NC(=O)C3(C)c2ccc(F)cn2)cn2c(C)cnc12 (centres unmarked) [Example 165B, 4-amino-2-(8-butyl-3-methylimidazo[1,2-a]pyrazin-6-yl)-5-(5-fluoropyridin-2-yl)-5-methyl-5H-pyrrolo[2,3-d]pyrimidin-6(7H)-one] | 81% | 43 nM |
| CCCCc1nc(-c2nc(N)c3c(n2)NC(=O)C3(C)c2ccc(C(F)(F)F)cn2)cn2c(C)cnc12 (centres unmarked) [Example 167B, 4-amino-2-(8-butyl-3-methylimidazo[1,2-a]pyrazin-6-yl)-5-methyl-5-(5-(trifluoromethyl)pyridin-2-yl)-5H-pyrrolo[2,3-d]pyrimidin-6(7H)-one] | 99% | 41 nM |
| Cc1nc2c(CCC(F)(F)C(F)(F)F)nc(-c3nc(N)c4c(n3)NC(=O)C4(C)c3ccc(F)cc3)cn2c1C (centres unmarked) [Example 177A, 4-amino-2-(2,3-dimethyl-8-(3,3,4,4,4-pentafluorobutyl)imidazo [1,2-a]pyrazin-6-yl)-5-(4-fluorophenyl)-5-methyl-5H-pyrrolo[2,3-d]pyrimidin-6(7H)-one] | 107% | 129 nM |
| CC1(c2ccc(Cl)cc2Cl)C(=O)Nc2nc(-c3cn4ccnc4c(CCC(F)(F)F)n3)nc(N)c21 (centres unmarked) [Example 187A, 4-amino-5-(2,4-dichlorophenyl)-5-methyl-2-(8-(3,3,3-trifluoropropyl)imidazo[1,2-a]pyrazin-6-yl)-5H-pyrrolo[2,3-d]pyrimidin-6(7H)-one] | 126% | 1070 nM |
| CC1(c2cccc(F)c2)C(=O)Nc2nc(-c3cn4ccnc4c(CCC(F)(F)F)n3)nc(N)c21 (centres unmarked) [Example 191A, 4-amino-5-(3-fluorophenyl)-5-methyl-2-(8-(3,3,3-trifluoropropyl)imidazo[1,2-a]pyrazin-6-yl)-5H-pyrrolo[2,3-d]pyrimidin-6(7H)-one] | 90% | 130 nM |

Other lines, results leading:

| Emax | EC50 | SMILES |
| --- | --- | --- |
| 122% | 29 nM | CC1(c2ccc(Cl)cc2)C(=O)Nc2nc(-c3cn4cc(C(F)(F)F)nc4c(Cc4cccc(F)c4)n3)nc(N)c21 (centres unmarked) [Example 150A, 4-amino-5-(4-chlorophenyl)-2-(8-(3-fluorobenzyl)-2-(trifluoromethyl)imidazo[1,2-a]pyrazin-6-yl)-5-methyl-5H-pyrrolo[2,3-d]pyrimidin-6(7H)-one] |
| 106% | 19 nM | CC1(c2ccc(Cl)cc2)C(=O)Nc2nc(-c3cn4cc(C(F)(F)F)nc4c(Cc4ccccc4F)n3)nc(N)c21 (centres unmarked) [Example 151A, 4-amino-5-(4-chlorophenyl)-2-(8-(2-fluorobenzyl)-2-(trifluoromethyl)imidazo[1,2-a]pyrazin-6-yl)-5-methyl-5H-pyrrolo[2,3-d]pyrimidin-6(7H)-one] |
| 110% | 37 nM | CC1(c2ccc(Cl)cc2)C(=O)Nc2nc(-c3cn4cc(C(F)(F)F)nc4c(Cc4ccc(F)cc4)n3)nc(N)c21 (centres unmarked) [Example 153A, 4-amino-5-(4-chlorophenyl)-2-(8-(4-fluorobenzyl)-2-(trifluoromethyl)imidazo[1,2-a]pyrazin-6-yl)-5-methyl-5H-pyrrolo[2,3-d]pyrimidin-6(7H)-one] |
| 92% | 163 nM | CC1(c2ccc(F)cc2)C(=O)Nc2nc(-c3cn4cc(C(F)(F)F)nc4c(CCC(F)(F)C(F)(F)F)n3)nc(N)c21 (centres unmarked) [Example 156A, 4-amino-5-(4-fluorophenyl)-5-methyl-2-(8-(3,3,4,4,4-pentafluorobutyl)-2-(trifluoromethyl)imidazo[1,2-a]pyrazin-6-yl)-5H-pyrrolo[2,3-d]pyrimidin-6(7H)-one] |
| 109% | 296 nM | CC1(c2ccccc2)C(=O)Nc2nc(-c3cn4cc(C5CC5)nc4c(CCC(F)(F)C(F)(F)F)n3)nc(N)c21 (centres unmarked) [Example 158B, 4-amino-2-(2-cyclopropyl-8-(3,3,4,4,4-pentafluorobutyl)imidazo [1,2-a]pyrazin-6-yl)-5-methyl-5-phenyl-5H-pyrrolo[2,3-d]pyrimidin-6(7H)-one] |
| 76% | 354 nM | CCc1cnc2c(CCC(F)(F)C(F)(F)F)nc(-c3nc(N)c4c(n3)NC(=O)C4(C)c3ccc(F)cc3)cn12 (centres unmarked) [Example 161A, 4-amino-2-(3-ethyl-8-(3,3,4,4,4-pentafluorobutyl)imidazo [1,2-a]pyrazin-6-yl)-5-(4-fluorophenyl)-5-methyl-5H-pyrrolo[2,3-d]pyrimidin-6(7H)-one] |
| 75% | 19 nM | CCCCc1nc(-c2nc(N)c3c(n2)NC(=O)C3(C)c2ccc(Cl)cn2)cn2c(C)cnc12 (centres unmarked) [Example 169A, 4-amino-2-(8-butyl-3-methylimidazo[1,2-a]pyrazin-6-yl)-5-(5-chloropyridin-2-yl)-5-methyl-5H-pyrrolo[2,3-d]pyrimidin-6(7H)-one] |
| 115% | 39 nM | CC1(c2ccc(F)cc2F)C(=O)Nc2nc(-c3cn4ccnc4c(CCC(F)(F)F)n3)nc(N)c21 (centres unmarked) [Example 180A, 4-amino-5-(2,4-difluorophenyl)-5-methyl-2-(8-(3,3,3-trifluoropropyl)imidazo[1,2-a]pyrazin-6-yl)-5H-pyrrolo[2,3-d]pyrimidin-6(7H)-one] |
